{"source": "patent US6399618B1", "about": "“Compositions and methods for modulating sexual activity” (priority 1997, dated 2002)", "key": {"male primates": {"test_system": "male primates", "experiment": "Sexual behavior in male primates, paired observation study (penile response grades)", "assay_type": "in vivo, macaca fascilaris", "details": "1.0 mg/kg ip; N=3; observed 1 hour", "description": "Monkeys used for testing were separated from the cluster of cages and treated and observed in pairs in the middle of the housing environment.\nN=3 for all drug-treated animals, while N=18 for saline-treated animals. […] Data are expressed as the number of test animals having a particular grade of penile response. Penile responses were scored every 10 sec for 1 hour according to the following scale:\nGrade 0=glans are hidden from the view\nGrade 1=glans are clearly visible\nGrade 2=penis is extended\nGrade 4=erection with masturbation\nGrade 5=erection with masturbation and ejaculation"}, "male rats": {"test_system": "male rats", "experiment": "Rat sexual behavior, proerectile actions after oral administration", "assay_type": "in vivo, SD rats", "description": "Male SD rats (250-300 g) were administered increasing doses of XVIb (30-100 mg/kg in distilled water, per os) or distilled water only via a feeding tube, and observed 5 minutes later for the number of erections (as characterized by penile grooming) over a 60 minute observation period. Six rats at a time, housed singly, were observed by two observers. Treatments were administered in a standard randomized and double blinded manner."}}, "note": "Structures can show the parent of a compound that is named as a salt.", "data": [{"smiles": "CN1CCN(C(=O)Cc2ccc3ccccc3c2)CC1", "note": "[Compound XVIb, 1-Methyl-4(2-naphthaleneacetyl)piperazine monohydrochloride]", "values": [{"measurement": "number of test animals having Grade 0 penile response (glans are hidden from the view)", "setting": "male primates", "result": 1}, {"measurement": "number of test animals having Grade 1 penile response (glans are clearly visible)", "setting": "male primates", "result": 2}, {"measurement": "number of test animals having Grade 2 penile response (penis is extended)", "setting": "male primates", "result": 2}, {"measurement": "number of test animals having Grade 3 penile response (full erection)", "setting": "male primates", "result": 2}, {"measurement": "number of test animals having Grade 4 penile response (erection with masturbation)", "setting": "male primates", "result": 1}, {"measurement": "number of test animals having Grade 5 penile response (erection with masturbation and ejaculation)", "setting": "male primates", "result": 0}, {"measurement": "Responders", "setting": "male rats; 30 mg/kg p.o.", "result": 100, "unit": "%"}, {"measurement": "maximum number of erections/rat", "setting": "male rats; 30 mg/kg p.o.", "result": 3, "unit": "h⁻¹"}, {"measurement": "Responders", "setting": "male rats; 100 mg/kg p.o.", "result": 100, "unit": "%"}, {"measurement": "maximum number of erections/rat", "setting": "male rats; 100 mg/kg p.o.", "result": 5, "unit": "h⁻¹"}]}]}
